Experimental data as given in ChEMBL document CHEMBL1131273, “Unsymmetric nonpeptidic HIV protease inhibitors containing anthranilamide as a P2' ligand” (Bioorg Med Chem Lett, 1998).
pEC50, pIC50, pKi: −log10 of the molar value.

Tests used:
CCRF-CEM [1] = test: Antiviral activity against HIV-I 3b in CEM cells; assay type: functional, cell-based; settings: Homo sapiens
[2] = biological target: Human immunodeficiency virus type 1 protease (Human immunodeficiency virus 1, UniProt Q72874); test: Inhibitory activity against HIV protease
CCRF-CEM [3] = test: Antiviral activity against HIV-I 3b in CEM cells; No activity; assay type: functional, cell-based, Homo sapiens
[4] = biological target: Human immunodeficiency virus type 1 protease (Human immunodeficiency virus 1) (UniProt Q72874); test: Compound was tested for inhibitory activity against HIV protease; settings: concentration not given here
[5] = Oral bioavailability in rat; assay type: ADME, organism-based; settings: in vivo
[6] = Maximum plasma concentration of compound present in rats at the dose of 38 mg/kg in 15 min; assay type: ADME, organism-based; set-up: dose 38 mg/kg; settings: rat
[7] = Biological half-life was measured in plasma of rats; assay type: ADME, organism-based; settings: rat
[8] = Ratio Cmax/EC50 was determined; assay type: functional
[9] = Maximum plasma concentration of compound present in rats at the dose of 37 mg/kg in 15 min; assay type: ADME, organism-based; set-up: dose 37 mg/kg; settings: rat
CCRF-CEM [10] = test: Compound was tested for cellular toxicity against CEM cell line; assay type: functional, cell-based; settings: Homo sapiens

Row | Structure (SMILES) | pEC50 (CCRF-CEM [1]) | pKi [2] | further results
1 | O=C(Nc1ccccc1C(=O)N[C@@H](Cc1ccccc1)C[C@H](O)[C@H](Cc1ccccc1)NC(=O)c1cscn1)OCc1ccccn1 | 5.52 | 8.33 | 
2 | Cc1ccccc1C(=O)N[C@@H](Cc1ccccc1)[C@@H](O)C[C@H](Cc1ccccc1)NC(=O)c1ccccc1NC(=O)OCc1ccccn1 | 6.30 | 9.57 | 
3 | CC(C)(C)OC(=O)N[C@@H](Cc1ccccc1)[C@@H](O)[C@@H](O)[C@H](Cc1ccccc1)NC(=O)c1ccccc1NC(=O)OCc1ccccn1 | 6.40 | 9.89 | 
4 | Nc1ccc(C(=O)N[C@@H](Cc2ccccc2)[C@H](O)[C@H](O)[C@H](Cc2ccccc2)NC(=O)c2ccccc2NC(=O)OCc2ccccn2)cc1 |  | 8.18 | EC50 (CCRF-CEM [3]): Not Active
5 | CC(C)(C)OC(=O)N[C@@H](Cc1ccccc1)[C@@H](O)C[C@H](Cc1ccccc1)NC(=O)c1ccccc1NC(=O)OCc1ccccn1 | 6.22 | 9.89 | 
6 | O=C(Nc1ccccc1C(=O)N[C@@H](Cc1ccccc1)C[C@H](O)[C@H](Cc1ccccc1)NC(=O)OCc1cscn1)OCc1ccccn1 | 6.22 | 9.21 | 
7 | Cc1nc(C(=O)N[C@@H](Cc2ccccc2)[C@@H](O)C[C@H](Cc2ccccc2)NC(=O)c2ccccc2NC(=O)OCc2ccccn2)cs1 | < 5.00 |  | inhibition [4]: 61%
8 | O=C(Nc1ccccc1C(=O)N[C@@H](Cc1ccccc1)[C@H](O)[C@H](O)[C@H](Cc1ccccc1)NC(=O)c1cccc(O)c1)OCc1ccccn1 |  | 9.30 | EC50 (CCRF-CEM [3]): Not Active
9 | O=C(Nc1ccccc1C(=O)N[C@@H](Cc1ccccc1)[C@@H](O)[C@@H](O)[C@H](Cc1ccccc1)NC(=O)c1cccc(O)c1)OCc1ccccn1 | 6.05 | 8.77 | 
10 | CCOC(=O)N[C@@H](C(=O)N[C@@H](Cc1ccccc1)[C@@H](O)C[C@H](Cc1ccccc1)NC(=O)c1ccccc1NC(=O)OCc1ccccn1)C(C)C | 8.15 | 10.52 | 
11 | O=C(Nc1ccccc1C(=O)N[C@@H](Cc1ccccc1)[C@@H](O)C[C@H](Cc1ccccc1)NC(=O)c1cccc(O)c1)OCc1ccccn1 | < 5.00 | 8.07 | 
12 | CCOC(=O)N[C@H](C(=O)N[C@@H](Cc1ccccc1)[C@@H](O)C[C@H](Cc1ccccc1)NC(=O)c1ccccc1NC(=O)OCc1ccccn1)[C@@H](C)CC | 7.30 | 10.70 | 
13 | O=C(Nc1ccccc1C(=O)N[C@@H](Cc1ccccc1)C[C@H](O)[C@H](Cc1ccccc1)NC(=O)OCc1cccnc1)OCc1ccccn1 | 6.46 | 11.00 | 
14 | Cc1c(O)cccc1C(=O)N[C@@H](Cc1ccccc1)[C@@H](O)[C@@H](O)[C@H](Cc1ccccc1)NC(=O)c1ccccc1NC(=O)OCc1ccccn1 | 7.70 | 10.05 | 
15 | O=C(Nc1ccccc1C(=O)N[C@@H](Cc1ccccc1)C[C@H](O)[C@H](Cc1ccccc1)NC(=O)c1cccc(O)c1)OCc1ccccn1 | 6.52 | 9.07 | 
16 | Nc1ccc(C(=O)N[C@@H](Cc2ccccc2)[C@@H](O)C[C@H](Cc2ccccc2)NC(=O)c2ccccc2NC(=O)OCc2ccccn2)cc1 | 6.30 | 8.82 | 
17 | O=C(Nc1ccccc1C(=O)N[C@@H](Cc1ccccc1)C[C@H](O)[C@H](Cc1ccccc1)NC(=O)O[C@@H]1CCOC1)OCc1ccccn1 | 7.52 | 10.40 | bioavailability [5]: 6%; Cmax [6]: 1040 nM
18 | O=C(Nc1ccccc1C(=O)N[C@@H](Cc1ccccc1)C[C@H](O)[C@H](Cc1ccccc1)NC(=O)OCc1cncs1)OCc1ccccn1 | 6.70 | 10.52 | bioavailability [5]: 30%; half-life [7]: 480 min; Ratio [8]: > 30
19 | Cc1c(O)cccc1C(=O)N[C@@H](Cc1ccccc1)C[C@H](O)[C@H](Cc1ccccc1)NC(=O)c1ccccc1NC(=O)OCc1ccccn1 | < 6.00 | 9.17 | 
20 | O=C(Nc1ccccc1C(=O)N[C@@H](Cc1ccccc1)C[C@H](O)[C@H](Cc1ccccc1)NC(=O)c1ccno1)OCc1ccccn1 | 5.70 | 8.92 | 
21 | Cc1c(O)cccc1C(=O)N[C@@H](Cc1ccccc1)[C@@H](O)C[C@H](Cc1ccccc1)NC(=O)c1ccccc1NC(=O)OCc1ccccn1 | 7.52 | 10.22 | bioavailability [5]: 1%; Cmax [9]: 30 nM; half-life [7]: 133 min
22 | Cc1c(N)cccc1C(=O)N[C@@H](Cc1ccccc1)[C@@H](O)C[C@H](Cc1ccccc1)NC(=O)c1ccccc1NC(=O)OCc1ccccn1 | 7.22 | 9.92 | bioavailability [5]: < 2%
23 | CC(C)(C)OC(=O)N[C@@H](Cc1ccccc1)[C@H](O)[C@H](O)[C@H](Cc1ccccc1)NC(=O)c1ccccc1NC(=O)OCc1ccccn1 | 6.31 | 9.35 | pIC50 (CCRF-CEM [10]): 4.68
24 | CC(C)(C)OC(=O)N[C@@H](Cc1ccccc1)C[C@H](O)[C@H](Cc1ccccc1)NC(=O)c1ccccc1NC(=O)OCc1ccccn1 | 6.31 | 9.07 | 
25 | O=C(Nc1ccccc1C(=O)N[C@@H](Cc1ccccc1)[C@H](O)[C@H](O)[C@H](Cc1ccccc1)NC(=O)O[C@@H]1CCOC1)OCc1ccccn1 | 7.22 | 10.15 | 
26 | Nc1cccc(C(=O)N[C@@H](Cc2ccccc2)[C@@H](O)C[C@H](Cc2ccccc2)NC(=O)c2ccccc2NC(=O)OCc2ccccn2)c1 | 6.60 | 9.40 | 
27 | O=C(Nc1ccccc1C(=O)N[C@@H](Cc1ccccc1)[C@H](O)[C@H](O)[C@H](Cc1ccccc1)NC(=O)c1ccccc1NC(=O)OCc1ccccn1)OCc1ccccn1 | 7.22 | 10.15 | 
28 | O=C(Nc1ccccc1C(=O)N[C@@H](Cc1ccccc1)[C@H](O)[C@H](O)[C@H](Cc1ccccc1)NC(=O)c1ccno1)OCc1ccccn1 | 6.10 | 9.40 | 
